Data from paper PMC8175350, “Drug repurposing screens identify chemical entities for the development of COVID-19 interventions” (Nature Communications, 2021).
Where a name gives a salt, the structure may show the parent alone. Read-outs that look alike come from different tables or passages of the source.

Tests used:
SARS-CoV-2 [1] = assay: microbe, parasite or virus in culture; type: cell-based; details: for Emax: Severe acute respiratory syndrome coronavirus 2, HeLa-ACE2, 24 h, read-out: HeLa-ACE2 CoV-2 Sinf Average; for EC50: read-out: HeLa-ACE2 CoV-2 EC50 GeoMean
HeLa-ACE2 cells [2] = assay: cells; details: Homo sapiens; for Emax: HeLa-ACE2, 24 h, read-out: HeLa-ACE2 cell count Sinf Average
HeLa-ACE2 cells [3] = assay: Total cell count in the HeLa-ACE2 TOA (time of addition) assay; type: cell-based, human; details: for EC50: Homo sapiens, HeLa-ACE2, read-out: HeLa-ACE2 TOA cell count EC50 GeoMean
Calu-3 cells [4] = assay: cells; details: Homo sapiens; for Emax: Calu-3, 48 h, read-out: Calu-3 cell count Sinf Average
HeLa-ACE2 cells [5] = assay: Uninfected HeLa-ACE2 24 h live/dead cytotoxicity counter screen; type: cell-based, human
[6] = as above; type: cell-based, human; details: human, uninfected HeLa-ACE2 cells, read-out: HeLa-ACE2 uninfected cytotoxicity CC50 GeoMean
Calu-3 cells [7] = details: for Calu-3 uninfected cytotoxicity Sinf Average: human, 48 h
SARS-CoV-2 [8] = type: cell-based; details: combination with remdesivir
SARS-CoV-2 [9] = assay: microbe, parasite or virus in culture; type: cell-based; details: for Emax: Severe acute respiratory syndrome coronavirus 2, HeLa-ACE2, 10 h, read-out: HeLa-ACE2 TOA CoV-2 Sinf Average; for EC50: read-out: HeLa-ACE2 TOA CoV-2 EC50 GeoMean
HepG2 [10] = details: human
HEK293T [11] = details: human
in vitro = details: human, Calu-3 uninfected cytotoxicity CC50 GeoMean
SARS-CoV-2 [12] = assay: microbe, parasite or virus in culture; type: cell-based; details: for Emax: Severe acute respiratory syndrome coronavirus 2, Calu-3, 48 h, read-out: Calu-3 CoV-2 Sinf Average; for EC50: read-out: Calu-3 CoV-2 EC50 GeoMean
[13] = HepG2 72 h CellTiter-Glo cytotoxicity; details: human, HepG2 cells
HepG2 [14] = assay: HepG2 72 h CellTiter-Glo cytotoxicity; details: 72 h
[15] = Uninfected Calu-3 48 h Cell-Titer Glo cytotoxicity counter screen; details: human, uninfected Calu-3 cells, Calu-3 uninfected cytotoxicity CC50 GeoMean
[16] = HEK293T 72 h CellTiter-Glo cytotoxicity; details: human, HEK293T cells
HEK293T [17] = assay: HEK293T 72 h CellTiter-Glo cytotoxicity; details: 72 h
Calu-3 cells [18] = assay: Uninfected Calu-3 48 h Cell-Titer Glo cytotoxicity counter screen
HeLa-ACE2 cells [19] = assay: cells; type: cell-based, human; details: Homo sapiens, HeLa-ACE2; read-out: HeLa-ACE2 TOA cell count EC50 GeoMean
[20] = Severe acute respiratory syndrome coronavirus 2, HeLa-ACE2, detail column
[21] = selectivity index, uninfected HeLa-ACE2 CC50 / SARS-CoV-2 EC50
[22] = HeLa-ACE2, read-out: HeLa-ACE2 cell count EC50 GeoMean
[23] = Calu-3, read-out: Calu-3 cell count EC50 GeoMean
[24] = human, uninfected HeLa-ACE2 cells, 24 h
[25] = Severe acute respiratory syndrome coronavirus 2, HeLa-ACE2
[26] = Severe acute respiratory syndrome coronavirus 2, Calu-3, detail column
[27] = selectivity index, uninfected Calu-3 CC50 / SARS-CoV-2 EC50
[28] = curve plateau at infinite concentration
[29] = Severe acute respiratory syndrome coronavirus 2, HeLa-ACE2, detail block
[30] = HeLa-ACE2, read-out: HeLa-ACE2 cell count EC50 GeoMean, detail block
[31] = Calu-3, read-out: Calu-3 cell count EC50 GeoMean, detail block
[32] = TOA EC50 / HeLa-ACE2 SARS-CoV-2 EC50
[33] = Severe acute respiratory syndrome coronavirus 2, Calu-3, detail block

SMILES | Emax (SARS-CoV-2 [1]) [%] | EC50 (SARS-CoV-2 [1]; [20]) [nM] | HeLa-ACE2 SI (SARS-CoV-2 [1]; [21]) | Emax (HeLa-ACE2 cells [2]) [%] | EC50 (HeLa-ACE2 cells [2]; [22]) [µM] | EC50 (HeLa-ACE2 cells [3]) [µM] | EC50 (Calu-3 cells [4]; [23]) [µM] | HeLa-ACE2 uninfected cytotoxicity Sinf Average (HeLa-ACE2 cells [5]; [24]) [%] | CC50 at 24 h [6] [µM] | uninfected Calu-3 CC50 (Calu-3 cells [7]) | Calu-3 uninfected cytotoxicity Sinf Average (Calu-3 cells [7]) [%] | TOA:HeLa-ACE2 EC50 Ratio (SARS-CoV-2 [9]) | Emax (SARS-CoV-2 [9]) [%] | EC50 (SARS-CoV-2 [9]; [25]) [µM] | HepG2 72-hour cytotoxicity Sinf Average (HepG2 [10]; 72 h) [%] | HEK293T 72-hour cytotoxicty Sinf Average (HEK293T [11]; 72 h) [%] | CC50 at 48 h (in vitro) [µM] | Emax (SARS-CoV-2 [12]) [%] | EC50 (SARS-CoV-2 [12]; [26]) [µM] | Calu-3 SI (SARS-CoV-2 [12]; [27]) | also measured
Nc1nc(Nc2ccc3c(c2)CC[C@@H](N2CCCC2)CC3)nn1-c1cc2c(nn1)-c1ccccc1CCC2 [BGB324] | 98 | 1200 | 13.05 | 100 | > 9.15 | > 9.59 | 6.27 | -101 | 15.7 | 19.024 ×÷ 1.18 (n=3) μM | -100 | 7.782 | 100 | > 9.35 | -105 | -102 | 19 | 100 | 6.94 | 2.74 | Emax (Calu-3 cells [4]): 100%; HeLa-ACE2 synergy score with remdesivi (SARS-CoV-2 [8]): 7.223 δ
Cc1c(-c2ccc(O)cc2)n(Cc2ccc(OCCN3CCCCCC3)cc2)c2ccc(O)cc12 [Bazedoxifene acetate] | 100 |  |  | 100 | > 8.59 | > 9.59 | > 9.98 |  | > 20.7 |  |  |  | 100 | > 4.47 |  |  |  | 94 |  |  | CC50 at 72 h [13]: 3.21 µM; HepG2 72-hour cytotoxicity Sinf Average (HepG2 [14]): -99%; CC50 at 48 h [15]: 10.6 µM; EC50 (SARS-CoV-2 [1]; [25]): 2880 nM; CC50 at 72 h [16]: 9.19 µM; HEK293T 72-hour cytotoxicty Sinf Average (HEK293T [17]): -106%; EC50 (SARS-CoV-2 [12]; Severe acute respiratory syndrome coronavirus 2, Calu-3): > 7.73 µM
CN1[C@@H]2CC[C@H]1C[C@@H](N1Cc3ccc4ccccc4c3C1=O)C2 [CR-3124] |  |  |  |  |  |  |  |  |  |  |  |  |  |  |  |  |  |  |  |  | HepG2 72-hour cytotoxicity Sinf Average (HepG2 [14]): -100%; Calu-3 uninfected cytotoxicity Sinf Average (Calu-3 cells [18]; [28]): -100%; HeLa-ACE2 SI (SARS-CoV-2 [1]): > 6.67; Emax (SARS-CoV-2 [1]; [28]): 100%; EC50 (SARS-CoV-2 [1]; [29]): 5970 nM; EC50 (HeLa-ACE2 cells [2]; [30]): > 9.59 µM; EC50 (Calu-3 cells [4]; [31]): > 9.98 µM; EC50 (HeLa-ACE2 cells [19]): > 9.59 µM; HeLa-ACE2 uninfected cytotoxicity Sinf Average (HeLa-ACE2 cells [5]; [28]): -100%; CC50 at 24 h ([6]; detail block): > 39.8 µM; Emax (SARS-CoV-2 [9]; [28]): 100%; EC50 (SARS-CoV-2 [9]; [29]): > 9.59 µM; TOA:HeLa-ACE2 EC50 Ratio (SARS-CoV-2 [9]; [32]): 1.607; HEK293T 72-hour cytotoxicty Sinf Average (HEK293T [17]): -100%; CC50 (in vitro; detail block): > 29.9 µM; EC50 (SARS-CoV-2 [12]; [33]): > 9.98 µM
COc1ccc2cc1Oc1ccc(cc1)C[C@H]1c3c(cc4c(c3Oc3cc5c(cc3OC)CCN(C)[C@@H]5C2)OCO4)CCN1C [Cepharanthine] |  |  |  |  |  |  |  |  |  | > 27.816 ×÷ 1.096 (n=3) μM | -100 |  |  |  | -100 | -103 | > 27.8 |  |  |  | HeLa-ACE2 SI (SARS-CoV-2 [1]): > 25.76; Emax (SARS-CoV-2 [1]; [28]): 98%; EC50 (SARS-CoV-2 [1]; [29]): 988 nM; EC50 (HeLa-ACE2 cells [2]; [30]): > 9.59 µM; EC50 (Calu-3 cells [4]; [31]): > 9.98 µM; EC50 (HeLa-ACE2 cells [19]): > 9.59 µM; HeLa-ACE2 uninfected cytotoxicity Sinf Average (HeLa-ACE2 cells [5]; [28]): -100%; CC50 at 24 h ([6]; detail block): > 25.4 µM; Emax (SARS-CoV-2 [9]; [28]): 100%; EC50 (SARS-CoV-2 [9]; [29]): > 9.5 µM; TOA:HeLa-ACE2 EC50 Ratio (SARS-CoV-2 [9]; [32]): 9.613; Calu-3 SI (SARS-CoV-2 [12]): 2.79; EC50 (SARS-CoV-2 [12]; [33]): > 9.98 µM
CCN(CC)CCCC(C)Nc1ccnc2cc(Cl)ccc12 (centres unmarked) [Chloroquine, DualTPharma, Chloroquine] |  |  |  |  |  |  |  |  |  |  |  |  |  |  |  |  |  |  |  |  | Emax (SARS-CoV-2 [1]; [28]): 107%; EC50 (SARS-CoV-2 [1]; [29]): 900 nM; EC50 (HeLa-ACE2 cells [2]; [30]): > 9.59 µM; EC50 (Calu-3 cells [4]; [31]): > 9.85 µM; EC50 (HeLa-ACE2 cells [19]): > 9.59 µM; HeLa-ACE2 uninfected cytotoxicity Sinf Average (HeLa-ACE2 cells [5]; [28]): -100%; CC50 at 24 h ([6]; detail block): > 39.8 µM; EC50 (SARS-CoV-2 [9]; [29]): > 9.59 µM; HepG2 72-hour cytotoxicity Sinf Average (HepG2 [10]): -100%; HEK293T 72-hour cytotoxicty Sinf Average (HEK293T [11]): -100%; EC50 (SARS-CoV-2 [12]; [33]): > 9.85 µM
CCCCC1CCc2cc(O)cc3c(CCN4CCN(c5cc(C)ccn5)CC4)c(C)n1c23 (centres unmarked) [KC 11404] | 100 | 2500 | > 8.39 | 100 | > 9.59 | > 9.59 | > 9.98 | -100 | > 20.9 | 12.778 ×÷ 1.123 (n=3) μM | -100 | 0.864 | 100 | 2.16 | -101 | -100 | 12.8 | 100 | 8.02 | 1.59 | HeLa-ACE2 TOA cell count Sinf Average (HeLa-ACE2 cells [3]): 100%; HeLa-ACE2 synergy score with remdesivi (SARS-CoV-2 [8]): -2.817 δ
O=C(CCCN1CCN(c2ccc(F)cc2)CC1)NC1c2ccccc2CSc2ccccc21 (centres unmarked) [Monatepil] |  |  | > 5.01 |  |  |  |  |  |  | > 29.9 ×÷ 1.002 (n=4) μM | -100 |  |  |  |  | -46 | > 29.9 |  |  |  | Emax (SARS-CoV-2 [1]; [28]): 100%; EC50 (SARS-CoV-2 [1]; [29]): > 7790 nM; EC50 (HeLa-ACE2 cells [2]; [30]): > 9.6 µM; Emax (Calu-3 cells [4]): -100%; EC50 (Calu-3 cells [4]; [31]): > 9.98 µM; EC50 (HeLa-ACE2 cells [19]): > 9.61 µM; HeLa-ACE2 uninfected cytotoxicity Sinf Average (HeLa-ACE2 cells [5]; [28]): -100%; CC50 at 24 h ([6]; detail block): > 39 µM; Emax (SARS-CoV-2 [9]; [28]): 100%; EC50 (SARS-CoV-2 [9]; [29]): 5.71 µM; TOA:HeLa-ACE2 EC50 Ratio (SARS-CoV-2 [9]; [32]): 0.732; Emax (SARS-CoV-2 [12]; [28]): 100%; EC50 (SARS-CoV-2 [12]; [33]): > 9.98 µM
OC(CNCC(O)C1CCc2cc(F)ccc2O1)C1CCc2cc(F)ccc2O1 (centres unmarked) [Nebivolol HCl] | 99 | 2960 | > 3.75 | 100 | > 9.12 | > 4.56 | > 9.98 | -103 | > 11.1 |  |  | 0.619 | 98 | 1.83 |  |  |  | 100 | > 8.69 | < 1.57 | CC50 at 72 h [13]: 7.62 µM; HepG2 72-hour cytotoxicity Sinf Average (HepG2 [14]): -99%; CC50 at 48 h [15]: 13.6 µM; Calu-3 uninfected cytotoxicity Sinf Average (Calu-3 cells [18]; human, uninfected Calu-3 cells, 48 h): -100%; HeLa-ACE2 TOA cell count Sinf Average (HeLa-ACE2 cells [3]): 70%; CC50 at 72 h [16]: 5.57 µM; HEK293T 72-hour cytotoxicty Sinf Average (HEK293T [17]): -106%
CC(C)Oc1ccc(-c2nc(-c3cccc4c3CC[C@@H]4NCCO)no2)cc1C#N [Ozanimod] | 101 | 2630 | > 5.60 | 100 | > 8.74 | > 9.59 | > 9.98 | -101 | > 14.7 | 13.319 ×÷ 1.347 (n=3) μM | -100 | 2.748 | 100 | > 7.24 | -103 | -100 | 13.3 | 97 | > 7.74 | < 1.72 | Emax (Calu-3 cells [4]): 100%; HeLa-ACE2 synergy score with remdesivi (SARS-CoV-2 [8]): -4.622 δ
